Assays:
multiple myeloma cells = conditions: mice to which multiple myeloma cells were transplanted; Blood, 100, 392 (2002); cited from earlier work
FGFR3 = test: Western blot: intracellular disappearance of FGFR3 in KMS-11 cells; format: cell-based, human; conditions: KF58333 4.0, 20 and 100 nmol/l, 40 hours, FIG. 1
Description: (§1) KMS-11 cells derived from human multiple myeloma [In Vitro Cell. Dev. Biol., 25, 723 (1989)], which were diluted to 10,000 cells/ml with RPMI 1640 medium containing 10% fetal bovine serum (hereinafter referred to as “culturing medium”), were put in plastic culture flasks (125 cm^2, Nunc) in 30 ml portions. KMS-11 cells are reported to be the cells in which a large amount of FGFR3 is expressed as a result of translocation between immunoglobulin gene on 14q32 and FGFR3 gene on 4p16.3 [Blood, 90, 4062 (1997)]. […]
(§2) To the thus recovered cells was added a cooled lysis buffer (50 mmol/l HEPES NaOH, pH 7.4, 250 mmol/l sodium chloride, 1 mmol/l ethylenediamine tetraacetate, 1% Nonidet P-40, 1 mmol/l dithiothreitol, 1 mmol/l phenylmethylsulfonyl fluoride, 5 μg/ml leupeptin), and the mixture was allowed to stand at 4° C. for 30 minutes for cytolysis, followed by centrifugation at 20000 G for 10 minutes. The concentration of proteins in the supernatant thus obtained was measured, and the samples were adjusted so that the amount of proteins per each lane was the same. […]
(§3) The separated protein samples were each transferred to a polyvinylidene difluoride membrane (Millipore). […] The band of each protein was detected by FluorImager (Molecular Dynamics) after reaction with ECF reagent (Molecular Dynamics).

Raf-1 = test: Western blot: Raf-1 level in KMS-11 cells; format: cell-based, human; conditions: KF58333 4.0, 20 and 100 nmol/l, 40 hours, FIG. 1
Description: as §1, §2, §3

Cdk6 = test: Western blot: Cdk6 level in KMS-11 cells; format: cell-based, human; conditions: KF58333 4.0, 20 and 100 nmol/l, 40 hours, FIG. 1
Description: as §1, §2, §3

Erk2 = test: Western blot: Erk2 level in KMS-11 cells; format: cell-based, human; conditions: KF58333 4.0, 20 and 100 nmol/l, 40 hours, FIG. 1, Erk2 is not an Hsp90 client protein
Description: as §1, §2, §3

KMS-11 cells [1] = test: Growth inhibition of KMS-11 cells (XTT); format: cell-based; conditions: Homo sapiens, 72 hours, calculated from the graph of FIG. 2, read-out: concentration to inhibit cell growth by 50% (GI50 value)
Description: KMS-11 cells diluted to 2×10^5 cells/ml with the culturing medium were pipetted into a 96-well microplate (Nunc) in an amount of 50 μl ([…]) per well. To each well was added 50 μl of a solution prepared by diluting a 10 mmol/l solution of KF58333 in DMSO to 600 nmol/l with the culturing medium and further serially diluting the resulting solution threefold with the culturing medium so as to make the final concentrations of KF58333 of 300, 100, 33.3, 11.1, 3.70 and 1.23 nmol/l, respectively. […] Thereafter, incubation was carried out in a 5% CO2 incubator at 37° C. for 72 hours, and the number of living cells was measured in the following manner. […] Then, the absorbance at 450 nm and 655 nm was measured using a microplate spectrophotometer (Model 550, BIO-RAD). A value (difference in absorbance) was calculated by subtracting the absorbance at 655 nm from that at 450 nm for each well. Since the number of living cells is proportional to the difference in absorbance, the rate (%) of the value of difference in absorbance obtained for cells to which various concentrations of KF58333 were added to that obtained for control cells to which KF58333 was not added when the latter value was designated as 100% was calculated as the rate of the number of living cells to that of control, and the cell growth inhibitory activity of KF58333 was measured.

KMS-11 cells [2] = test: In vivo antitumor effect in KMS-11 cell-transplanted mice; conditions: KMS-11 subcutaneous tumor in scid mice, 25 mg/kg intravenously once a day for 5 consecutive days, measured up to day 24, FIG. 3
Description: In vivo antitumor effect of a compound having an inhibitory action on Hsp90 was examined using a human tumor model prepared by transplanting KMS-11 cells to immunodeficient mice as a model of a disease associated with immunoglobulin gene translocations.
KMS-11 cells were cultured in a 5% CO2 incubator at 37° C. using the culturing medium for propagation. One day before transplantation, 0.3 mg/mouse of anti-asialo GM1 antibody was intraperitoneally administered to 10 […] Fox C.B-17/Icr-scidJcl mice (CLEA JAPAN). One day after the administration of the antibody, the cultured KMS-11 cells (1×10^7 cells/mouse) were subcutaneously transplanted to the mice. Fourteen days after the transplantation, the longer diameter and shorter diameter of the tumor subcutaneously grown were measured with slide calipers, and the tumor volume was calculated according to the following equation: Tumor volume V(mm^3)={longer diameter (mm)×[shorter diameter(mm)]^2}/2
At the same time, the body weight of each mouse was measured, and the mice were divided into two groups of 5 mice each so that the tumor volume and the body weight are randomized. The day was defined as day 0 of the administration test, and drug administration was started in the following manner. […]

| SMILES | survival time of mice (multiple myeloma cells) | intracellular amount of FGFR3 (Western blot) (FGFR3) | intracellular amount of Raf-1 (Western blot) (Raf-1) | intracellular amount of Cdk6 (Western blot) (Cdk6) | intracellular amount of Erk2 (Western blot) (Erk2) | GI50 (KMS-11 cells [1]) | tumor growth (volume ratio V/V0) (KMS-11 cells [2]) |
| --- | --- | --- | --- | --- | --- | --- | --- |
| C=CCNC1=C2C[C@@H](C)C[C@H](OC)[C@H](O)[C@@H](C)/C=C(\C)[C@H](OC(N)=O)[C@@H](OC)/C=C\C=C(/C)C(=O)NC(=CC1=O)C2=O [17-allylamino-17-demethoxy geldanamycin] | extended survival time |  |  |  |  |  |  |
| CC1CC2OC2\C=C/C=C/C(=N\OCCN2CCCC2=O)Cc2c(Cl)c(O)cc(O)c2C(=O)O1 (stereo not shown) [KF58333] |  | disappeared | disappeared | disappeared | no change | 0.0198 µM | apparent suppression of tumor growth |

Reference: patent publication US20070004674A1, “Remedy for diseases associated with immunoglobulin gene translocation” (Kyowa Hakko Kogyo Co. Ltd., priority 2003, published 2007)
